The source of these data is US20250313556A1, “CERTAIN CHEMICAL ENTITIES, COMPOSITIONS, AND METHODS” (MRJA THERAPEUTICS, INC., priority 2022, published 2025).

For the test, the target named is c-KIT (Homo sapiens, UniProt P10721). The test can be described thus: c-KIT ADP-Glo biochemical assay. The method, then:
The inhibitory activity against c-KIT was measured using ADP-Glo assay. The percent (%) inhibition at each concentration of compound is calculated based on and relative to the luminescence signal in the Max and Min control wells contained within each assay plate. The Max control wells contain enzyme and substrate as 0% inhibition, and the Min control wells only contain substrate without enzyme as 100% inhibition. The concentrations and % inhibition values for tested compounds are plotted and the concentration of compound required for 50% inhibition (IC50) is determined with a four-parameter logistic dose response equation. The ability of the compounds in Table 1 to inhibit c-KIT was determined.

c-KIT, sequence (P10721 26-976): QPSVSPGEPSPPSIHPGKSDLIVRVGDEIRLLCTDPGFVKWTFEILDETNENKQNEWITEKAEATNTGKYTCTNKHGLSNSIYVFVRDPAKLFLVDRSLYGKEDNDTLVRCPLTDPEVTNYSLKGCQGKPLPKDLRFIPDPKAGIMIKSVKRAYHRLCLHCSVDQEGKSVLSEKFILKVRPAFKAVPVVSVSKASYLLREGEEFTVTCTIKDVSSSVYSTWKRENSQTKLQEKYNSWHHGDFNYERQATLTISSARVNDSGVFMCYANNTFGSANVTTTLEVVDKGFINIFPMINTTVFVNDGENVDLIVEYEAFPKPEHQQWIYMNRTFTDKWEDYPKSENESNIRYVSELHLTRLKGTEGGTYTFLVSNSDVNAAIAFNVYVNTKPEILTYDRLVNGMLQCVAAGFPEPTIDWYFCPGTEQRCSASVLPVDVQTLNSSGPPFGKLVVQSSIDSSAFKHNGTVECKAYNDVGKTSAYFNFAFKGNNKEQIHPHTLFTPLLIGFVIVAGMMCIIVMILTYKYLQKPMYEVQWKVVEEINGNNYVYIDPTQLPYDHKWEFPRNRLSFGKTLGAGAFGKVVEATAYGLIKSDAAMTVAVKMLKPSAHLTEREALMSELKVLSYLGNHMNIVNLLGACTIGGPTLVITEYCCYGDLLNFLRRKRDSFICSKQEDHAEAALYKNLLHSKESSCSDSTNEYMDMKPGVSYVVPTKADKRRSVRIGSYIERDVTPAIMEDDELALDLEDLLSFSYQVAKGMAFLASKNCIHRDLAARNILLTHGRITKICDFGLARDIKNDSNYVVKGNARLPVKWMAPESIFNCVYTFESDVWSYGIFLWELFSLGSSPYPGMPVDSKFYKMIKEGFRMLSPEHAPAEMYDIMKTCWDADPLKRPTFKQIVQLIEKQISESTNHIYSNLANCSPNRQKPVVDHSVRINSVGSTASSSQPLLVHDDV

For the compound `Cc1c(F)cc(-c2noc([C@H]3C[C@@H]3F)n2)cc1NC(=O)c1cnc2ccccn12` (racemic) [Compound C002, N-(3-fluoro-5-(5-((1R,2S)-2-fluorocyclopropyl)-1,2,4-oxadiazol-3-yl)-2-methylphenyl)imidazo[1,2-a]pyridine-3-carboxamide], the IC50 (class ranges) lay in the range of 1 to 20 µM. As to `Cc1c(F)cc(-c2noc([C@H]3C[C@H]3F)n2)cc1NC(=O)c1cnn2ccccc12` (racemic) [Compound C005], the half-maximal inhibitory concentration (IC50) (class ranges) lay within 0.1 to 1 µM. Same read-out and setting: the value for `Cc1c(F)cc(-c2noc([C@H]3C[C@@H]3F)n2)cc1NC(=O)c1cnc2ccc(N3CCOCC3)cn12` (racemic) [Compound C008, N-(3-fluoro-5-(5-((1R,2S)-2-fluorocyclopropyl)-1,2,4-oxadiazol-3-yl)-2-methylphenyl)-6-morpholinoimidazo[1,2-a]pyridine-3-carboxamide] was 1 to 20 µM. On the same count and under the same terms, the value for `Cc1c(F)cc(-c2noc([C@H]3C[C@@H]3F)n2)cc1NC(=O)c1cnc2cc(N3CCNCC3)ccn12` (racemic) [Compound C022, N-(3-fluoro-5-(5-((1R,2S)-2-fluorocyclopropyl)-1,2,4-oxadiazol-3-yl)-2-methylphenyl)-7-(piperazin-1-yl)imidazo[1,2-a]pyridine-3-carboxamide] was 1 to 20 µM. The same measure, in the same setting: the value for `Cc1c(F)cc(-c2noc([C@H]3C[C@@H]3F)n2)cc1NC(=O)c1cnc2ccc(N3CCNCC3)cn12` (racemic) [Compound C026, N-(3-fluoro-5-(5-((1R,2S)-2-fluorocyclopropyl)-1,2,4-oxadiazol-3-yl)-2-methylphenyl)-6-(piperazin-1-yl)imidazo[1,2-a]pyridine-3-carboxamide] was 0.1 to 1 µM. As for `Cc1c(F)cc(-c2noc([C@H]3C[C@@H]3F)n2)cc1NC(=O)c1cnc2ccc(N3CCN(C)CC3)cn12` (racemic) [Compound C034, N-(3-fluoro-5-(5-((1R,2S)-2-fluorocyclopropyl)-1,2,4-oxadiazol-3-yl)-2-methylphenyl)-6-(4-methylpiperazin-1-yl)imidazo[1,2-a]pyridine-3-carboxamide], the IC50 (class ranges) is 0.1 to 1 µM. `CC(=O)N1CCN(c2ccc3ncc(C(=O)Nc4cc(-c5noc([C@H]6C[C@@H]6F)n5)cc(F)c4C)n3c2)CC1` (racemic) [Compound C039, 6-(4-acetylpiperazin-1-yl)-N-(3-fluoro-5-(5-((1R,2S)-2-fluorocyclopropyl)-1,2,4-oxadiazol-3-yl)-2-methylphenyl)imidazo[1,2-a]pyridine-3-carboxamide] displayed an IC50 (class ranges) of no more than 0.1 µM. Turning to `Cc1c(F)cc(-c2noc(C3CC(F)(F)C3)n2)cc1NC(=O)c1cnc2ccccn12` [Compound C001, N-(5-(5-(3,3-difluorocyclobutyl)-1,2,4-oxadiazol-3-yl)-3-fluoro-2-methylphenyl)imidazo[1,2-a]pyridine-3-carboxamide], the IC50 (class ranges) lay within 1 to 20 µM. As for `COC(=O)N1CC(c2nc(-c3cc(F)c(C)c(NC(=O)c4cnc5ccccn45)c3)no2)C1` [Compound C003, methyl 3-(3-(3-fluoro-5-(imidazo[1,2-a]pyridine-3-carboxamido)-4-methylphenyl)-1,2,4-oxadiazol-5-yl)azetidine-1-carboxylate], the IC50 runs as follows: (class ranges) no more than 0.1 µM; (comparison of prior art compounds (WO 2013/033167) with example 3 (C003)) 0.043 µM. Compound `Cc1c(F)cc(-c2noc(C3CC(F)(F)C3)n2)cc1NC(=O)c1cnn2ccccc12` [Compound C004, N-(5-(5-(3,3-difluorocyclobutyl)-1,2,4-oxadiazol-3-yl)-3-fluoro-2-methylphenyl)pyrazolo[1,5-a]pyridine-3-carboxamide] yielded an IC50 (class ranges) of 1 to 20 µM. On the same count and under the same terms, the value for `COC(=O)N1CC(c2nc(-c3cc(F)c(C)c(NC(=O)c4cnn5ccccc45)c3)no2)C1` [Compound C006, methyl 3-(3-(3-fluoro-4-methyl-5-(pyrazolo[1,5-a]pyridine-3-carboxamido)phenyl)-1,2,4-oxadiazol-5-yl)azetidine-1-carboxylate] was 0.1 to 1 µM; that for `Cc1c(F)cc(-c2noc(C3CC(F)(F)C3)n2)cc1NC(=O)c1cnc2ccc(N3CCOCC3)cn12` [Compound C007, N-(5-(5-(3,3-difluorocyclobutyl)-1,2,4-oxadiazol-3-yl)-3-fluoro-2-methylphenyl)-6-morpholinoimidazo[1,2-a]pyridine-3-carboxamide] was 0.1 to 1 µM; that for `COC(=O)N1CC(c2nc(-c3cc(F)c(C)c(NC(=O)c4cnc5ccc(N6CCOCC6)cn45)c3)no2)C1` [Compound C009, methyl 3-(3-(3-fluoro-4-methyl-5-(6-morpholinoimidazo[1,2-a]pyridine-3-carboxamido)phenyl)-1,2,4-oxadiazol-5-yl)azetidine-1-carboxylate] was 0.1 to 1 µM. The compound `Cc1c(F)cc(-c2noc(C3CC(F)(F)C3)n2)cc1NC(=O)c1cnc2cc(N3CCNCC3)ccn12` [Compound C010, N-(5-(5-(3,3-difluorocyclobutyl)-1,2,4-oxadiazol-3-yl)-3-fluoro-2-methylphenyl)-7-(piperazin-1-yl)imidazo[1,2-a]pyridine-3-carboxamide] yielded an IC50 (class ranges) of 0.1 to 1 µM. For `Cc1c(F)cc(-c2noc(C3CC(F)(F)C3)n2)cc1NC(=O)c1cnc2cc(N3CCN(C)CC3)ccn12` [Compound C011, N-(5-(5-(3,3-difluorocyclobutyl)-1,2,4-oxadiazol-3-yl)-3-fluoro-2-methylphenyl)-7-(4-methylpiperazin-1-yl)imidazo[1,2-a]pyridine-3-carboxamide], for the setting “class ranges”, the IC50 was in the range of 0.1 to 1 µM. The same measure, in the same setting: the value for `COC(=O)N1CC(c2nc(-c3cc(F)c(C)c(NC(=O)c4cnc5ccc(Cl)cn45)c3)no2)C1` [Compound C012, methyl 3-(3-(3-(6-chloroimidazo[1,2-a]pyridine-3-carboxamido)-5-fluoro-4-methylphenyl)-1,2,4-oxadiazol-5-yl)azetidine-1-carboxylate] was 0.1 to 1 µM. Same read-out and setting: the value for `Cc1c(F)cc(-c2noc(C3CC(F)(F)C3)n2)cc1NC(=O)c1cnc2cc(N3CCOCC3)ccn12` [Compound C013, N-(5-(5-(3,3-difluorocyclobutyl)-1,2,4-oxadiazol-3-yl)-3-fluoro-2-methylphenyl)-7-morpholinoimidazo[1,2-a]pyridine-3-carboxamide] was 0.1 to 1 µM; that for `Cc1c(F)cc(-c2noc([C@H]3C[C@@H]3F)n2)cc1NC(=O)c1cnc2cc(N3CCOCC3)ccn12` [Compound C014, N-(3-fluoro-5-(5-((1R,2S)-2-fluorocyclopropyl)-1,2,4-oxadiazol-3-yl)-2-methylphenyl)-7-morpholinoimidazo[1,2-a]pyridine-3-carboxamide] was 0.1 to 1 µM; that for `COC(=O)N1CC(c2nc(-c3cc(F)c(C)c(NC(=O)c4cnc5cc(N6CCOCC6)ccn45)c3)no2)C1` [Compound C015, methyl 3-(3-(3-fluoro-4-methyl-5-(7-morpholinoimidazo[1,2-a]pyridine-3-carboxamido)phenyl)-1,2,4-oxadiazol-5-yl)azetidine-1-carboxylate] was no more than 0.1 µM. For the setting “class ranges”, `COC(=O)N1CC(c2nc(-c3cc(F)c(C)c(NC(=O)c4cnc5cc(Cl)ccn45)c3)no2)C1` [Compound C016, methyl 3-(3-(3-(7-chloroimidazo[1,2-a]pyridine-3-carboxamido)-5-fluoro-4-methylphenyl)-1,2,4-oxadiazol-5-yl)azetidine-1-carboxylate] registered an IC50 of 0.1 to 1 µM. Take `COC(=O)N1CC(c2nc(-c3cc(F)c(C)c(NC(=O)c4cnc5cc(C)ccn45)c3)no2)C1` [Compound C017, methyl 3-(3-(3-fluoro-4-methyl-5-(7-methylimidazo[1,2-a]pyridine-3-carboxamido)phenyl)-1,2,4-oxadiazol-5-yl)azetidine-1-carboxylate]: for the setting “class ranges”, the IC50 lay within 0.1 to 1 µM. As to `CC(=O)N1CCN(c2ccn3c(C(=O)Nc4cc(-c5noc(C6CC(F)(F)C6)n5)cc(F)c4C)cnc3c2)CC1` [Compound C018, 7-(4-acetylpiperazin-1-yl)-N-(5-(5-(3,3-difluorocyclobutyl)-1,2,4-oxadiazol-3-yl)-3-fluoro-2-methylphenyl)imidazo[1,2-a]pyridine-3-carboxamide], under “class ranges”, the IC50 fell in the range of 0.1 to 1 µM. On the same count and under the same terms, the value for `COC(=O)N1CC(c2nc(-c3cc(F)c(C)c(NC(=O)c4cnc5ccc(F)cn45)c3)no2)C1` [Compound C019, methyl 3-(3-(3-fluoro-5-(6-fluoroimidazo[1,2-a]pyridine-3-carboxamido)-4-methylphenyl)-1,2,4-oxadiazol-5-yl)azetidine-1-carboxylate] was 0.1 to 1 µM. On the same count and under the same terms, the value for `COC(=O)N1CC(c2nc(-c3cc(F)c(C)c(NC(=O)c4cnc5ccc(N6CCNCC6)cn45)c3)no2)C1` [Compound C020, methyl 3-(3-(3-fluoro-4-methyl-5-(6-(piperazin-1-yl)imidazo[1,2-a]pyridine-3-carboxamido)phenyl)-1,2,4-oxadiazol-5-yl)azetidine-1-carboxylate] was 1 to 20 µM; that for `COC(=O)N1CC(c2nc(-c3cc(F)c(C)c(NC(=O)c4cnc5ccc(C)cn45)c3)no2)C1` [Compound C021, methyl 3-(3-(3-fluoro-4-methyl-5-(6-methylimidazo[1,2-a]pyridine-3-carboxamido)phenyl)-1,2,4-oxadiazol-5-yl)azetidine-1-carboxylate] was 0.1 to 1 µM; that for `CCOC(=O)N1CC(c2nc(-c3cc(F)c(C)c(NC(=O)c4cnc5ccccn45)c3)no2)C1` [Compound C023, ethyl 3-(3-(3-fluoro-5-(imidazo[1,2-a]pyridine-3-carboxamido)-4-methylphenyl)-1,2,4-oxadiazol-5-yl)azetidine-1-carboxylate] was 0.1 to 1 µM.

On to `COC(=O)N1CC(c2nc(-c3cc(F)c(C)c(NC(=O)c4cnc5cc(F)ccn45)c3)no2)C1` [Compound C024, methyl 3-(3-(3-fluoro-5-(7-fluoroimidazo[1,2-a]pyridine-3-carboxamido)-4-methylphenyl)-1,2,4-oxadiazol-5-yl)azetidine-1-carboxylate], for which, under “class ranges”, the IC50 was in the range of 0.1 to 1 µM.
